Columns and labels:
[1] = Extraction of lead from water with octanol and triethylamine; conditions: 3 mM Pb(NO3)2 in deionized water, 1 equivalent triethylamine
Procedure: A 3 mM Pb(NO3)2 sample was prepared in deionized water and Compound 25 was added to give a green fluorescence. The lead was then extracted from the water using either 1-octanol or 2-octanol each with 1 equivalent (relative to Compound 25) of triethylamine, which turned the octanol portion green. After washing thrice with 1-octanol, 99% of the Pb^2+had been extracted from the water. After washing twice with 2-octanol, 83% of the Pb^2+had been extracted from the water.

[2] = Visual detection limit of Pb(NO3)2 (color change blue to green); conditions: 5 μM compound in 3:1 tetrahydrofuran:methanol, Pb(NO3)2 in deionized water
Procedure: The detection limit Pb(NO3)2 (i.e., Pb^2+) for Compound 25 in 3:1 tetrahydrofuran:methanol was tested by exposing samples of 5 μM Compound 25 to ever decreasing concentrations of Pb(NO3)2 dissolved in deionized water.
A 40 mM solution of Pb(NO3)2 (i.e., Pb^2+) was prepared in tap water and then diluted with 3:1 tetrahydrofuran:methanol to a lead concentration of 133 μM. The resultant sample was added to solutions of 5 μM sample of Compound 25 in 3:1 tetrahydrofuran:methanol. […] This example illustrates that the lead detection can be performed using tap water, which includes a variety of other ions.

[3] = Emission spectrum on exposure to varying amounts of Pb(NO3)2 in different solvents
Procedure: Compound 20 was dissolved in methanol and then exposed to varying amounts of Pb(NO3)2 (i.e., Pb^2+). […] Therefore, a kit, method, system, or the like may utilize a specific solvent system for detection of lead or other ions. Alternatively, and especially where the metal ion concentration is unknown, a kit, method, system, or the like may utilize a series of solvent systems in parallel to determine a concentration of metal ions.
A 5 μM sample of Compound 25 in 3:1 tetrahydrofuran:methanol or 2:1 tetrahydrofuran:methanol was prepared and exposed to varying amounts of Pb(NO3)2 (i.e., Pb^2+) dissolved in deionized water.

[4] = Ion selectivity, visual inspection when excited at 365 nm; conditions: 3:1 tetrahydrofuran:methanol
Procedure: Compound 25 was dissolved in 3:1 tetrahydrofuran:methanol and then exposed to varying amounts of Zn/SO4 (i.e., Zn^2+), (NH4)2Fe(SO4)2.6H2O (i.e., Fe^2+), Fe2O3 (i.e., Fe^3+), CuSO4 (i.e., Cu^2+), or Pb(NO3)2 (i.e., Pb^2+) each in deionized water. Upon visual inspection when excited at 365 nm, the sample exposed to Pb^2+turned green while all other samples remained blue.

[5] = Detection of lead in methanol extract of soil sample; conditions: methanol filtrate diluted in 3:1 tetrahydrofuran:methanol
Procedure: A lead-free soil sample was collected, placed into a Buchner funnel, and soaked with 1 mL of 0.15 M Pb(NO3)2 in water to introduce lead to the soil. As a control sample, the same was performed with the lead-free soil without exposure to Pb^2+. After soaking, the soil samples were washed with 50 mL of methanol. A sample from each filtrate was diluted in 3:1 tetrahydrofuran:methanol and exposed to Compound 25. […] This example illustrates that the substituted chromones described herein may be useful in detecting ions from soil extracts.

[6] = Shift in emission spectrum on exposure to varying amounts of FeCl3; conditions: for red-shift in peak emission wavelength / Fe^3+ ions at which shift in emission spectrum is saturated: FeCl3; for total red-shift in peak emission wavelength: FeCl3, at saturation
Procedure: Two substituted chromones (Compound 11 and Compound 20) were dissolved in methanol and exposed to varying amounts of FeCl3 (i.e., Fe^3+). FIG. 4 illustrates the shift in emission spectrum of Compound 11 with increasing amounts of Fe^3+ ions. With about 10 equivalents of Fe^3+ ions, the shift in emission spectrum is saturated, with a total of about a 30 nm red-shift in peak emission wavelength. FIG. 5 illustrates the shift in emission spectrum of Compound 20 with increasing amounts of Fe^3+ ions. With about 10 equivalents of Fe^3+ ions, the shift in emission spectrum is saturated, with a total of about a 50 nm red-shift in peak emission wavelength.
Compound 11 was dissolved in various solvents and then exposed to varying amounts of FeCl3 (i.e., Fe^3+). […]

[7] = Emission spectrum on exposure to varying amounts of (NH4)2Fe(SO4)2.6H2O
Procedure: Compound 11 was dissolved in methanol and then exposed to varying amounts of FeCl3 (i.e., Fe^3+) or (NH4)2Fe(SO4)2.6H2O (i.e., Fe^2+). […] Therefore, Compound 11 may be used to detect Fe^3+ while in the presence of Fe^2+.

Q: Which “Pb^2+ extracted from the water” value ([1]; washing thrice with 1-octanol) does the source give for `COC(=O)C(C)(C)C1Oc2ccc(OC)cc2C(=O)/C1=C\NS(=O)(=O)c1ccc(OC)cc1` (centres unmarked) [Compound 25, (Z)methyl-2-(6-methoxy-3-(((4-methoxyphenyl)sulfonamido)methylene)-4-oxochroman-2-yl)-2-methylpropanoate] here?
A: 99%

Q: What about the “Pb^2+ extracted from the water” value ([1]; washing twice with 2-octanol) of the same molecule?
A: 83%

Q: What about the “speed of color change observed” value [2] of the same molecule?
A: almost instantaneous

Q: And the “visual change of fluorescence in the presence of Pb^2+” value ([3]; 5 μM compound, 3:1 or 2:1 tetrahydrofuran:methanol)?
A: from blue to green

Q: What about the “change of peak emission wavelength in the presence of Pb^2+” value ([3]; 5 μM compound, 3:1 or 2:1 tetrahydrofuran:methanol, excitation 370 nm (FIGS. 11-12)) of the same molecule?
A: red-shift and intensity decrease

Q: And the “fluorescence color of sample” value ([4]; (NH4)2Fe(SO4)2.6H2O in deionized water)?
A: remained blue

Q: What about the “fluorescence color of sample” value ([4]; CuSO4 in deionized water) of the same molecule?
A: remained blue

Q: What about the “fluorescence color of sample” value ([4]; Fe2O3 in deionized water) of the same molecule?
A: remained blue

Q: And the “fluorescence color of sample” value ([4]; Pb(NO3)2 in deionized water)?
A: turned green

Q: What about the “fluorescence color of sample” value ([4]; Zn/SO4 in deionized water) of the same molecule?
A: remained blue

Q: What about the “color change with extract from soil sample exposed to Pb^2+” value [5] of the same molecule?
A: color change from blue to green

Q: Which results are given for `COC(=O)C(C)(C)C1Oc2ccc(OC)cc2C(=O)/C1=C\O` (centres unmarked) [Compound 11, (Z)-methyl-2-(3-(hydroxymethylene)-6-methoxy-4-oxochroman-2-yl)-2-methylpropanoate]?
A: red-shift in peak emission wavelength ([6]; 1:1 methanol:water): still exhibits a red-shift in peak emission wavelength; intensity change for the peak emission wavelength with increasing metal ion concentration ([6]; methanol (FIG. 4)): intensity decrease; Fe^3+ ions at which shift in emission spectrum is saturated ([6]; methanol): about 10 equivalents; shift of peak emission wavelength ([6]; methanol, FeCl3 (FIG. 4)): significant red-shift; total red-shift in peak emission wavelength ([6]; methanol): ~30 nm; red-shift in peak emission wavelength ([6]; polar aprotic solvents such as tetrahydrofuran, acetonitrile, acetone): did not exhibit an appreciable red-shift; red-shift in peak emission wavelength ([6]; polar protic solvents like water, methanol and mixtures thereof): exhibited an appreciable red-shift; intensity change for the peak emission wavelength with increasing metal ion concentration ([7]; methanol (FIG. 6)): intensity decrease; shift of peak emission wavelength ([7]; methanol, (NH4)2Fe(SO4)2.6H2O (FIG. 6)): does not exhibit appreciable shift

Q: For `CCc1ccc2c(c1)C(=O)/C(=C\NS(=O)(=O)c1ccc(C)cc1)C(C(C)(C)C(=O)OC)O2` (centres unmarked) [Compound 20, (Z)-methyl 2-(6-ethyl-3-((4-methylphenylsulfonamido)meth-ylene)-4-oxochroman-2-yl)-2-methylpropanoate], which “red-shift in peak emission wavelength” value ([6]; 1:1 methanol:water) is on record?
A: does not

Q: And the “Fe^3+ ions at which shift in emission spectrum is saturated” value ([6]; methanol)?
A: about 10 equivalents

Q: And the “total red-shift in peak emission wavelength” value ([6]; methanol)?
A: ~50 nm

Q: And the “Pb^2+ at max shift in peak emission wavelength” value ([3]; 1:1 tetrahydrofuran:methanol)?
A: about 5 equivalents

Q: And the “Pb^2+ at max shift in peak emission wavelength” value ([3]; 3:1 tetrahydrofuran:methanol)?
A: about 3 equivalents

Q: What about the “shift in peak emission wavelength” value ([3]; THF alone) of the same molecule?
A: no appreciable shift

Q: And the “Pb^2+ at which shift in peak emission wavelength maxes out” value ([3]; methanol)?
A: 10 equivalents

Q: And the “change of peak emission wavelength in the presence of Pb^2+” value ([3]; methanol, 1:1 and 3:1 tetrahydrofuran:methanol, tetrahydrofuran (FIGS. 7-10), degree depends on solvent)?
A: red-shift and intensity decrease

Q: And the “shift in peak emission wavelength at 1 equivalent Pb^2+” value ([3]; mixed tetrahydrofuran/methanol)?
A: does have an appreciable shift
